Tests used:
HT-29 cell line = experiment: Human xenograft model, tumor volume; type: in vivo; conditions: dose equivalent to the MTD for this strain of mouse, clinical schedule; FIG. 4
Method: In a human xenograft model using an HT-29 cell line, proteasome inhibitors were administered using the indicated regimens.

[1] = twice weekly for two weeks (days 1, 4, 8 and 11) followed by a ten-day rest period; cited from earlier work
[2] = female rats; daily administration of doses that result in 80% inhibition of the proteasome; cited from earlier work
[3] = monkeys, cited from earlier work

In the case of `CC(C)C[C@H](NC(=O)[C@H](Cc1ccccc1)NC(=O)c1cnccn1)B(O)O` [bortezomib], the anti-tumor response (HT-29 cell line) is listed as “unable to induce an anti-tumor response”, the “maximum tolerated dose (MTD)” value [1] is listed as 1.3 mg/m^2/dose and the lethality [2] is listed as 67%. For the same compound, the “highest daily dose without severe toxicity, fold less than the MTD on the clinical dosing schedule” value [3] was 20 fold and the “highest dose without severe toxicity” value ([3]; daily administered) was 0.5 mg/m^2.
